One assay deals with T1, human FLVCR (Homo sapiens, UniProt Q9Y5Y0).
T1 construct: expressed in transfected cells; host or cells: NRK (rat kidney) cells engineered to express human FLVCR
T1 sequence (Q9Y5Y0 1-555): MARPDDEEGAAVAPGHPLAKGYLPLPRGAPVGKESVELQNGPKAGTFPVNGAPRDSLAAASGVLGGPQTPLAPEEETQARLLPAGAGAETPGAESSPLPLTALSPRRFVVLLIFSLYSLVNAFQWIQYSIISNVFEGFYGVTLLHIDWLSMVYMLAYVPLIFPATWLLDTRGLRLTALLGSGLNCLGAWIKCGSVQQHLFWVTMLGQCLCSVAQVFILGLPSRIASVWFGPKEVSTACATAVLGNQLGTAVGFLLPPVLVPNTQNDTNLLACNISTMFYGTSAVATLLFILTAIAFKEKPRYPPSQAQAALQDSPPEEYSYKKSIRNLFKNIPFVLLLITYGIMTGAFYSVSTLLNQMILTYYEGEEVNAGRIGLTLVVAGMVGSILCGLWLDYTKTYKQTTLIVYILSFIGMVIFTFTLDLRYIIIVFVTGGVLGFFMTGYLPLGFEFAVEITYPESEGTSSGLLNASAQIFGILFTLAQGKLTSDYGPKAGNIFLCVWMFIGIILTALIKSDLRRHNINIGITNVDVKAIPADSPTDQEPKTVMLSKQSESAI
Nature of the assay: ZnMP export from NRK cells engineered to express human FLVCR, with carrier protein. It counts as cell-based. The settings on record: NRK cells expressing human FLVCR; 37° C. for 90 min.

For assay [1] the following is noted: heme binding; cited from earlier work.
Assay [2] deals with bone marrow-derived macrophages. Kind of assay: Ferritin studies in macrophages (ELISA) with or without hepcidin. The settings on record: control and Flvcr-deleted macrophages exposed to FAC (10 μM Fe) 24 hours, washed, then 24 hours with hepcidin (1 ug/ul). Format: cell-based, mouse. The method, then:
FIGS. 4A-4B. FLVCR exports heme-iron from macrophages. (4A) Bone marrow-derived macrophages from control (striped) and mice in which Flvcr was deleted neonatally (black) were incubated in the absence or presence of FAC (10 μM Fe) for 24 or 48 hours, then washed; ferritin was measured by enzyme-linked immunosorbent (ELISA) (i). Cells were incubated with FAC for 24 hours (ii) or with IgG-coated red blood cells (RBC) for 90 min (iii), washed, then incubated for an additional 24 hours with or without hepcidin (1 ug/ul) and ferritin assayed. Data represent ferritin values in macrophages derived from two control and two deleted mice±SEM of triplicate samples per mouse. (4B) Model of macrophage heme-iron recycling.
Murine macrophage culture. Single-cell suspensions of mouse bone marrow were collected from mice 5 days after completing poly(I)-poly(C) treatment. […] Macrophages were defined by flow cytometry (Mac-1^+, f4/80^+, GR-1^−) and analyzed for ZnMP and ^55Fe-hemin export 10-24 days post in vivo deletion (after 5-19 days in culture).
Ferritin studies in macrophages. […] After 24 hrs, the samples were collected in lysis buffer (150 mM NaCl, 10 mM EDTA, 1% Triton X-100, 10 mM Tris pH 7.4), and complete protease inhibitor (Roche Diagnostics Co., Indianapolis, Ind.) and analyzed for ferritin levels as described (S16).
For orientation: ELISA stands for enzyme-linked immunosorbent assay.

Ends that are not written are not given here.

From the text for human FLVCR: ZnMP and ^55Fe-hemin uptake and washout studies.
To gain insights into the structure and function of FLVCR, we first studied the export of zinc mesoporphyrin (ZnMP), a fluorescent heme analog that traffics similarly to heme and also blocks heme oxygenase activity.

Consider hemopexin [Hpx], for which the “efficacy in inducing ZnMP export, relative to albumin” value with human FLVCR is on record as 100 fold. For the same substance, the Kd in assay [1] was < 1 pM.

Take “hepcidin (DTHFPICIFCCGCCHRSKCGMCCKT; ends and bridges not checked; cysteine pairing not given here; UniProt P81172 60-84, looked up)”: the ferritin entry in assay [2] is “increase equivalently”.

As usually defined, the Kd is the free concentration of one partner at which half of the binding sites on the other are occupied at equilibrium, for simple one-to-one binding.

Values taken from patent publication US8119773B2, “Compositions and methods for facilitating heme-iron export from cells” (University of Washington, priority 2007, dated 2012).
